The test system of data set [1] is GL261 glioma cells. The conditions noted are these: FIG. 18B left panel; control MS 25 days.
Description: FIG. 18A: Schema of the treatment of immunocompetent mice that underwent i.e. implantation of either GL261 or CT-2A glioma cells. […] FIG. 18C: Schema of the treatment of immunocompetent mice that underwent i.e. implantation of either CT-2A or QPP8v (subclone) glioma cells. […] FIG. 18E: Multiplexed sequential immunofluorescence images of untreated CT-2A gliomas (n=3). […] White boxes outline the portion shown at higher magnification in the right column of images. Scale bars: 500 μm (left 3 columns) and 50 μm (right column).
For data set [2], the system named is CT-2A glioma cells. The following applies: FIG. 18B right panel; control MS 28 days.
Protocol: As such, we evaluated synergy in the CT-2A and QPP8v immunocompetent murine glioma models. […] To visualize TME features that would be reflective of response, the CT-2A model was treated on day 7 and during the therapeutic window, the activation of the STING pathway (i.e., p-IRF3) and the immune infiltration were analyzed with multiplexed SeqIF imaging.
The subject of data set [3] is human U87 glioma cells. Kind of data set: Humanized mice implanted with human U87 glioma cells. It counts as in vivo, mouse. The source says:
. (FIG. 15A) Multiplexed sequential immunofluorescence images of the STING expression at baseline in humanized mouse brain implanted with U87 glioma cells and collected at endpoint. The right image represents a high magnification of the white box drawn in the left image. The white arrows highlight CD31+STING+ vessels and green arrows highlight the CD163+STING+ macrophages. […] Scale bars: 500 μm (left panel) and 50 μm (right panel). A higher magnification image of a CD163+STING+ cell is represented at the upper right quadrant of the right image (scale bar: 20 μm). […] MFI, mean fluorescence intensity; h, human; TAM, tumor-associated macrophage; Mono, monocyte; PMN, […]; MDSC, myeloid-derived suppressor cell. […] The markers were assessed via Cytek Aurora flow cytometer and the CD45+CD11b+ population was analyzed for the indicated markers. *P<0.05; ** P<0.01; *** P<0.001; **** P<0.0001 by 2-tailed Student's t test (FIGS. 15E-H).
STING expression on human and murine glioma cells was analyzed (FIG. 15A). […] To evaluate whether this treatment induces an inflammatory response directed against the CNS, the mice were evaluated daily. […]

For data set [4], the system named is spontaneous unresected gliomas. The data set can be described thus: Intratumoral delivery of STING agonist in spontaneous canine high-grade glioma. It counts as in vivo, dog. The method, then: A single ˜5 mm-diameter burr hole craniectomy was made at entry point determined by Brainsight Neuronavigation System.
A 100 uL-Hamilton syringe secured in a calibrated holder on an x-y stage containing 50 μL of Compound C at varying concentrations
Contrast enhancing target was selected using the MRI reconstruction.
Compound of Formula C was injected at a rate of 2 uL/minute.
Compound of Formula C was administered via repeated intratumoral injections up to 20 μg in 50 uL in a large animals (canines) with spontaneous unresected gliomas.

The subject of data set [5] is QPP8 glioma cells. The following applies: administered on days 14, 21, and 28.
Description: The total amount of immune cells was quantified based on all live CD45+ cells and specifically on CD11b+Ly6C+ expression of mono-MDSCs. […] Each dot represents an analyzed tumor or LN. FIG. 16E: Expression of immunosuppressive markers CD206 and CD163 spanning myeloid populations and as a function of treatment. FIG. 16F: Myeloid PD-L1 expression on various immune lineages in tumors and LNs.
Data set [6] concerns spontaneous unresected gliomas. The following applies: dogs; previously shown (ref 12); cited from earlier work.
Data set [7] relates to U2940 human B-cell lymphoma, 8505C human thyroid carcinoma, and B16F10-PDL2 murine melanoma tumor cell lines. Kind of data set: ADCC reporter cell assay. The conditions noted are these: FIG. 10. The class given is cell-based. As for the experimental part:
(§1) A dose range was tested in ADCC (FIGS. 10A, 10C, and 10E) and ADCP FIGS. 10B, 10C, and 10F) assays against U2940 human B-cell lymphoma (FIGS. 10A and 10B), 8505C human thyroid carcinoma (FIGS. 10C and 10D), and B16F10-PDL2 murine melanoma (FIGS. 10E, and 10F) tumor cell lines.

Data set [8] relates to TS/A tumor. The data set can be described thus: TS/A mouse model of mammary carcinoma. The following applies: versus control group.
In data set [9] the test system is U2940 human B-cell lymphoma, 8505C human thyroid carcinoma, and B16F10-PDL2 murine melanoma tumor cell lines. Kind of data set: ADCP reporter cell assay. The following applies: FIG. 10. It counts as cell-based. The method, then:
as §1

In data set [10] the target is T1, PD-1: PD-L2 (Homo sapiens, UniProt Q9BQ51).
T1 construct: expressed in transfected cells; host or cells: PD-1 expressing effector cells and PD-L2+ artificial antigen presenting cells
T1 sequence (Q9BQ51 20-273): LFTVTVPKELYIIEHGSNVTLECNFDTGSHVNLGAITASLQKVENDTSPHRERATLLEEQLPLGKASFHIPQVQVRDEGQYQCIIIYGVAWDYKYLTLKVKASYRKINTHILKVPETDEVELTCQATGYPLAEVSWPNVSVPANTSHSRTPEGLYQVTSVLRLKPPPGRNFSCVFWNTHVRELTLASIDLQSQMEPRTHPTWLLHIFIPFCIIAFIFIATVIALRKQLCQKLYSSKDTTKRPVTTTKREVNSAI
The data set can be described thus: PD-1 pathway blockade reporter cell assay, PD-L2+ cells. It counts as cell-based. The following applies: FIG. 9. As for the experimental part:
(§2) A dose range of 50.000-0.015 nM was tested against PD-L1+ cells (FIG. 9A), PD-L2+ cells (FIG. 9B), and a 50:50 mixture of PD-L1+ and PD-L2+ cells (FIG. 9C). Nonlinear regression was used to generate best-fit curves in GraphPad Prism.
(§3) The ability of Ab-27907 to interrupt the PD-1 pathway through binding of the ligands PD-L1 and PD-L2 was tested in a reporter cell system. In this assay, PD-1 expressing effector cells are incubated with artificial antigen presenting cells expressing PD-L1 or PD-L2 with a T cell receptor (TCR). Without any antibodies, luminescence activity is low, as PD-1 binds its ligands, preventing TCR engagement and production of luciferase.

The target of data set [11] is T2, PD-1: PD-L1 (Homo sapiens, UniProt Q9NZQ7).
T2 construct: expressed in transfected cells; host or cells: PD-1 expressing effector cells and PD-L1+ artificial antigen presenting cells
T2 sequence (Q9NZQ7 19-290): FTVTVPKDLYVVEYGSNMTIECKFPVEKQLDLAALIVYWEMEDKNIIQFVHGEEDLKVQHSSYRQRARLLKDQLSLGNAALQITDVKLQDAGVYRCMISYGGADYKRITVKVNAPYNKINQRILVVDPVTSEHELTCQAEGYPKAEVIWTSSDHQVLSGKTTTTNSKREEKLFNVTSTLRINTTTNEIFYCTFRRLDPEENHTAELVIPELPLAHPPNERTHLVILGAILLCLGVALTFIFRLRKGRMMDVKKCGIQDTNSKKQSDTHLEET
Kind of data set: PD-1 pathway blockade reporter cell assay, PD-L1+ cells. It counts as cell-based. The following applies: FIG. 9. As for the experimental part:
as §2, §3

Data set [12] concerns B16F10-PDL2 tumor. Kind of data set: B16F10-PDL2 melanoma tumor-bearing mice. The conditions noted are these: monotherapy, first 2 weeks.
Description: Left: Mean±SEM tumor volume (mm^3) is plotted on the y-axis against days post tumor inoculation on the x-axis. Right: Kaplan Meier plots of survival.

Take `C[C@H](NC(=O)/C(C#N)=C/c1cccc(Br)n1)c1ccccc1` [WP1066, reference compound]: the “median survival (MS)” value is recorded as 30 days in data set [1] and 28 days in data set [2].

Consider `Nc1ncnc2c1ncn2[C@@H]1O[C@@H]2COP(O)(=S)O[C@@H]3C(O)[C@@H](COP(O)(=S)O[C@H]2[C@H]1O)O[C@H]3n1cnc2c(N)ncnc21` (stereo partly drawn) [MLRR-S2-CDA, reference compound], for which the “survival of U87 tumor-bearing animals” value in data set [3] (both P<0.0001) was “significantly extended survival”. In addition, the “median survival (MS)” value in data set [3] (treated on days 5, 10, and 15, control MS 26.5 days) is 35 days.

For `Nc1ncnc2c1ccn2[C@@H]1O[C@@H]2COP(=O)(S)O[C@@H]3[C@H](O)[C@@H](COP(=O)(S)O[C@H]2[C@H]1O)O[C@H]3n1cnc2c(N)ncnc21` (stereo partly drawn) [Compound C], in [4] (dog, single injection), the “radiographic responses in spontaneously arising high-grade gliomas” value was “can produce radiographic responses”. In [4] (repeated intratumoral injections in 50 uL, canines with unresected gliomas), this molecule yielded an MTD of 15 to 20 µg.

`Nc1ncnc2c1ccn2[C@@H]1O[C@@H]2COP(=O)(S)O[C@@H]3[C@H](O)[C@@H](COP(=O)(S)O[C@H]2[C@H]1O)O[C@H]3n1cnc2c(N)ncnc21` (stereo partly drawn) [Compound 8779]: the “therapeutic outcome” value in [5] is given as “curative”. Besides, the “median survival (MS)” value in [5] (control MS=103 days) is recorded as “undefined”. Moreover, the “radiographic regression in spontaneously arising glioblastomas” value in data set [6] is listed as “induces radiographic regression”.

B1: Ab-27907: dual functioning PD-L1/PD-L2 monoclonal antibody; Fc point mutations enhance cell-mediated effector functions (antibody, V domains shown)
VH: QVQLVESGGGVIQPGRSLRLSCAASGFTFSAYLMHWVRQAPGKGLEWVAAIGYDGMNKYYADSVKGRFTISRDNSKNTLYLQMNSLRAEDTAVYYCARAGIEYSYAYTDYWGQGTLVTVSS
VL: EIVLTQSPGTLSLSPGERATLSCRASQFVYSSDLAWYQQKPGQAPRLLIYGASARAAGIPDRFSGSGSGTDFTLTISRLEPEDFAVYYCMQFGWWPPRTFGGGTKVEIK
In the case of B1, the “capacity to induce ADCC” value in data set [7] is “robust activity”. Moreover, in data set [8], the “survival” value is recorded as “significant extended survival”. Also, the “capacity to induce ADCP” value in [9] is “robust activity”. The “blockade of PD-1: PD-L2” value in [10] is recorded as “additionally blocks PD-1: PD-L2”. Moreover, the “blockade of PD-1: PD-L1” value in [11] was “blocks PD-1: PD-L1 as well as pembrolizumab”. Also, the tumor growth entry in data set [12] is “significantly inhibited tumor growth”.

The values are drawn from patent publication US20250170159A1, “COMPOSITIONS COMPRISING STING AGONISTS AND METHODS OF USE FOR TREATING GLIOMA” (ImmunoGenesis, Inc., priority 2023, published 2025).
